Where a SMILES comes first, the peptide text is derived from it.
Assays:
human GRF receptor = target: T1, human GRF receptor (Homo sapiens, UniProt Q02643); assay: Alkaline phosphatase (AP) assay, GHRHr agonist activity; type: cell-based; conditions: BHK cells stably expressing human GRF receptor and alkaline phosphatase reporter gene; 24 hrs stimulation; read-out: EC50 (nM) as assessed by alkaline phosphatase (AP) induction
T1 construct: expressed in transfected cells; host or cells: baby hamster kidney (BHK) cells, stably transfected
T1 sequence (Q02643 23-423): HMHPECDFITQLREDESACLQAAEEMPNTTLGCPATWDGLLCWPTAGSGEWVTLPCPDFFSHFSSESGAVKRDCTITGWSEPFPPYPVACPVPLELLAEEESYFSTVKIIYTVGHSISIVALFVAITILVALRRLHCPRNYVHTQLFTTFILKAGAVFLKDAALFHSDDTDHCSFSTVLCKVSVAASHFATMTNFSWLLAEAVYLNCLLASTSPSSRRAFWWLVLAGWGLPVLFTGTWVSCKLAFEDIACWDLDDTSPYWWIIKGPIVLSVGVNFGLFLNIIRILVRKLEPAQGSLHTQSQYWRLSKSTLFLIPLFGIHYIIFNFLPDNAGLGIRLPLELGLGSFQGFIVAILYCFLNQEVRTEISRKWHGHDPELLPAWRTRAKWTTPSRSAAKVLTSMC
Description: The activity of representative GRF peptides was tested on baby hamster kidney (BHK) cells stably transfected to express the human GRF receptor and an alkaline phosphatase reporter gene. Cells were cultured 24 hours before stimulation, in 96-well plates, at a concentration of 0.5×10^5 cells/well. Before stimulation, cells were washed twice with DPBS and incubated 10-30 min in assay buffer (DMEM without phenol red supplemented with 20 mM HEPES and 1% heat inactivated fetal bovine serum (FBS). The dose response curve of the GRF peptides was done for 24 hrs with concentrations of peptides from 10^−5 M to 10^−11 M. Supernatant was collected and analysis of alkaline phosphatase levels was performed using the Alkaline Phosphatase detection kit from Applied Biosystems.
The in vitro activity of representative GRF analogs was tested on baby hamster kidney (BHK) cells expressing human GHRHr.

Growth Hormone secretion [1] = assay: Growth Hormone secretion in female rats after subcutaneous GRF analog; type: in vivo; conditions: female Sprague-Dawley rats; 10 μg/rat subcutaneous; plasma 0-60 minutes
In short: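 Female Sprague-Dawley rats (250–300 g), isoflurane-anaesthetised with carotid cannula, got GRF analog 10 μg/rat s.c. in 20 mM AcONa + 5% mannitol, pH 5. Blood was drawn at 0, 10, 20, 30, 45 and 60 min (4–8 rats per group per time point). Plasma GH was measured by rat/mouse GH ELISA on 20-fold diluted samples.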

Growth Hormone secretion [2] = assay: Growth Hormone secretion in female mice after subcutaneous GRF analog; type: in vivo; conditions: female CD-1 mice; 10 μg/mouse subcutaneous; plasma 10 minutes after injection
In short: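 Female CD-1 mice (20–25 g) got a subcutaneous dose of 10 μg/mouse GRF analog in 20 mM sodium acetate + 5% mannitol, pH 5. Plasma was taken by cardiac puncture 10 min after dosing into K3EDTA. GH was measured by rat/mouse GH ELISA on 20-fold diluted plasma.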

Molecule	EC50 (human GRF receptor) [nM]	Mean AUC (GH Area Under the curve, GH concentration over time) (Growth Hormone secretion [1])	Mean Cmax (ng/ml) of Growth Hormone secretion (Growth Hormone secretion [1]) [ng/mL]	GH levels 10 min (Growth Hormone secretion [2]) [ng/mL]
H-YGDAIFTDSYRKVLAQLKARQDILARAARAAR-NH2 [SEQ ID NO: 34, YGDAIFTDSYRKVLAQLKARQDILARAARAAR-NH2]	0.2	11046	539.7	–
CC[C@H](C)[C@H](NC(=O)[C@H](C)NC(=O)[C@H](CC(=O)O)NC(=O)[C@@H](C)NC(=O)[C@@H](N)Cc1ccc(O)cc1)C(=O)N[C@@H](Cc1ccccc1)C(=O)N[C@H](C(=O)N[C@@H](CC(=O)O)C(=O)N[C@@H](CO)C(=O)N[C@@H](Cc1ccc(O)cc1)C(=O)N[C@@H](CCCNC(=N)N)C(=O)N[C@@H](CCCCN)C(=O)N[C@H](C(=O)N[C@@H](CC(C)C)C(=O)N[C@@H](C)C(=O)N[C@@H](CCC(N)=O)C(=O)N[C@@H](CC(C)C)C(=O)N[C@@H](CCCCN)C(=O)N[C@@H](C)C(=O)N[C@@H](CCCNC(=N)N)C(=O)N[C@@H](CCC(N)=O)C(=O)N[C@@H](CC(=O)O)C(=O)N[C@H](C(=O)N[C@@H](CC(C)C)C(=O)N[C@@H](C)C(=O)N[C@@H](CCCNC(=N)N)C(=O)N[C@@H](C)C(=O)N[C@@H](C)C(=O)N[C@@H](CCCNC(=N)N)C(=O)N[C@@H](C)C(=O)N[C@@H](C)C(=O)N[C@@H](CCCNC(=N)N)C(=O)N[C@@H](CCO)C(N)=O)[C@@H](C)CC)C(C)C)[C@@H](C)O [SEQ ID NO: 37, Y-a-DAIFTDSYRKVLAQLKARQDILARAARAAR-HoSer-NH2] (HELM PEPTIDE1{Y.[dA].D.A.I.F.T.D.S.Y.R.K.V.L.A.Q.L.K.A.R.Q.D.I.L.A.R.A.A.R.A.A.R.[O=C([C@H](CCO)N[*:1])[*:2]].[am]}$$$$V2.0)	0.2	14757	594.6	–
CC[C@H](C)[C@H](NC(=O)[C@H](C)NC(=O)[C@H](CC(=O)O)NC(=O)[C@@H](C)NC(=O)[C@@H](N)Cc1ccc(O)cc1)C(=O)N[C@@H](Cc1ccccc1)C(=O)N[C@H](C(=O)N[C@@H](CC(=O)O)C(=O)N[C@@H](CO)C(=O)N[C@@H](Cc1ccc(O)cc1)C(=O)N[C@@H](CCCNC(=N)N)C(=O)N[C@@H](CCCCN)C(=O)N[C@H](C(=O)N[C@@H](CC(C)C)C(=O)N[C@@H](C)C(=O)N[C@@H](CCC(N)=O)C(=O)N[C@@H](CC(C)C)C(=O)N[C@@H](CCCCN)C(=O)N[C@@H](C)C(=O)N[C@@H](CCCNC(=N)N)C(=O)N[C@@H](CCC(N)=O)C(=O)N[C@@H](CC(=O)O)C(=O)N[C@@H](CC(C)C)C(=O)N[C@@H](CC(C)C)C(=O)N[C@@H](C)C(=O)N[C@@H](CCCNC(=N)N)C(=O)N[C@@H](C)C(=O)N[C@@H](C)C(=O)N[C@@H](CCCNC(=N)N)C(=O)N[C@@H](C)C(=O)N[C@@H](C)C(=O)N[C@@H](CCCNC(=N)N)C(N)=O)C(C)C)[C@@H](C)O [SEQ ID NO: 30, Y-a-DAIFTDSYRKVLAQLKARQDLLARAARAAR-NH2] (HELM PEPTIDE1{Y.[dA].D.A.I.F.T.D.S.Y.R.K.V.L.A.Q.L.K.A.R.Q.D.L.L.A.R.A.A.R.A.A.R.[am]}$$$$V2.0)	–	12282	664.1	493.3
CC/C=C/CC(=O)N[C@@H](Cc1ccc(O)cc1)C(=O)N[C@@H](C)C(=O)N[C@@H](CC(=O)O)C(=O)N[C@@H](C)C(=O)N[C@H](C(=O)N[C@@H](Cc1ccccc1)C(=O)N[C@H](C(=O)N[C@@H](CC(=O)O)C(=O)N[C@@H](CO)C(=O)N[C@@H](Cc1ccc(O)cc1)C(=O)N[C@@H](CCCNC(=N)N)C(=O)N[C@@H](CCCCN)C(=O)N[C@H](C(=O)N[C@@H](CC(C)C)C(=O)N[C@@H](C)C(=O)N[C@@H](CCC(N)=O)C(=O)N[C@@H](CC(C)C)C(=O)N[C@@H](CO)C(=O)N[C@@H](C)C(=O)N[C@@H](CCCNC(=N)N)C(=O)N[C@@H](CCC(N)=O)C(=O)N[C@@H](CC(=O)O)C(=O)N[C@H](C(=O)N[C@@H](CC(C)C)C(=O)N[C@@H](C)C(=O)N[C@@H](CCCNC(=N)N)C(=O)N[C@@H](C)C(=O)N[C@@H](C)C(=O)N[C@@H](CCCNC(=N)N)C(=O)N[C@@H](C)C(=O)N[C@@H](C)C(=O)N[C@@H](CCCNC(=N)N)C(N)=O)[C@@H](C)CC)C(C)C)[C@@H](C)O)[C@@H](C)CC [SEQ ID NO: 27, Trans-3-hexenoyl-YADAIFTDSYRKVLAQLSARQDILARAARAAR-NH2] (HELM PEPTIDE1{[CC/C=C/CC(=O)[*:2]].Y.A.D.A.I.F.T.D.S.Y.R.K.V.L.A.Q.L.S.A.R.Q.D.I.L.A.R.A.A.R.A.A.R.[am]}$$$$V2.0)	–	8350	455.6	323.6

The remaining molecules from weak to strong by EC50 (human GRF receptor), led by results:

EC50 (human GRF receptor) [nM]	Molecule	Mean AUC (GH Area Under the curve, GH concentration over time) (Growth Hormone secretion [1])	Mean Cmax (ng/ml) of Growth Hormone secretion (Growth Hormone secretion [1]) [ng/mL]	GH levels 10 min (Growth Hormone secretion [2]) [ng/mL]
0.25	H-YSDAIFTDSYRKVLAQLKARQDILARAARAAR-NH2 [SEQ ID NO: 33, YSDAIFTDSYRKVLAQLKARQDILARAARAAR-NH2]	12467	499.0	–
0.25	Ac-YADAIFTDSYRKVLAQLSARKLLQDILSR-NH2 [SEQ ID NO: 43, Ac-YADAIFTDSYRKVLAQLSARKLLQDILSR-NH2, reference compound]	2128	83.6	277
0.2	CC[C@H](C)[C@H](NC(=O)[C@H](C)NC(=O)[C@H](CC(=O)O)NC(=O)CNC(=O)[C@@H](N)Cc1ccc(O)cc1)C(=O)N[C@@H](Cc1ccccc1)C(=O)N[C@H](C(=O)N[C@@H](CC(=O)O)C(=O)N[C@@H](CO)C(=O)N[C@@H](Cc1ccc(O)cc1)C(=O)N[C@@H](CCCNC(=N)N)C(=O)N[C@@H](CCCCN)C(=O)N[C@H](C(=O)N[C@@H](CC(C)C)C(=O)N[C@@H](C)C(=O)N[C@@H](CCC(N)=O)C(=O)N[C@@H](CC(C)C)C(=O)N[C@@H](CCCCN)C(=O)N[C@@H](C)C(=O)N[C@@H](CCCNC(=N)N)C(=O)N[C@@H](CCC(N)=O)C(=O)N[C@@H](CC(=O)O)C(=O)N[C@H](C(=O)N[C@@H](CC(C)C)C(=O)N[C@@H](C)C(=O)N[C@@H](CCCNC(=N)N)C(=O)N[C@@H](C)C(=O)N[C@@H](C)C(=O)N[C@@H](CCCNC(=N)N)C(=O)N[C@@H](C)C(=O)N[C@@H](C)C(=O)N[C@@H](CCCNC(=N)N)C(=O)N[C@@H](CCO)C(N)=O)[C@@H](C)CC)C(C)C)[C@@H](C)O [SEQ ID NO: 36, YGDAIFTDSYRKVLAQLKARQDILARAARAAR-HoSer-NH2] (HELM PEPTIDE1{Y.G.D.A.I.F.T.D.S.Y.R.K.V.L.A.Q.L.K.A.R.Q.D.I.L.A.R.A.A.R.A.A.R.[O=C([C@H](CCO)N[*:1])[*:2]].[am]}$$$$V2.0)	6211	373.5	–
0.11	CC/C=C/CC(=O)N[C@@H](Cc1ccc(O)cc1)C(=O)N[C@@H](C)C(=O)N[C@@H](CC(=O)O)C(=O)N[C@@H](C)C(=O)N[C@H](C(=O)N[C@@H](Cc1ccccc1)C(=O)N[C@H](C(=O)N[C@@H](CC(=O)O)C(=O)N[C@@H](CO)C(=O)N[C@@H](Cc1ccc(O)cc1)C(=O)N[C@@H](CCCNC(=N)N)C(=O)N[C@@H](CCCCN)C(=O)N[C@H](C(=O)N[C@@H](CC(C)C)C(=O)N[C@@H](C)C(=O)N[C@@H](CCC(N)=O)C(=O)N[C@@H](CC(C)C)C(=O)N[C@@H](CCCCN)C(=O)N[C@@H](C)C(=O)N[C@@H](CCCNC(=N)N)C(=O)N[C@@H](CCC(N)=O)C(=O)N[C@@H](CC(=O)O)C(=O)N[C@@H](CC(C)C)C(=O)N[C@@H](CC(C)C)C(=O)N[C@@H](C)C(=O)N[C@@H](CCCNC(=N)N)C(=O)N[C@@H](C)C(=O)N[C@@H](C)C(=O)N[C@@H](CCCNC(=N)N)C(=O)N[C@@H](C)C(=O)N[C@@H](C)C(=O)N[C@@H](CCCNC(=N)N)C(N)=O)C(C)C)[C@@H](C)O)[C@@H](C)CC [SEQ ID NO: 32, Trans-3-hexenoyl-YADAIFTDSYRKVLAQLKARQDLLARAARAAR-NH2] (HELM PEPTIDE1{[CC/C=C/CC(=O)[*:2]].Y.A.D.A.I.F.T.D.S.Y.R.K.V.L.A.Q.L.K.A.R.Q.D.L.L.A.R.A.A.R.A.A.R.[am]}$$$$V2.0)	10500	514.8	401.6

— patent US8361964B2, “Growth hormone releasing factor (GRF) analogs and uses thereof” (Theratechnologies Inc., priority 2011, dated 2013)
